Assay results taken from patent US20090312294A1, “Method and Agent for Reducing Weight, Accelerating Lipid Catabolism, and/or Restricting Calories” (priority 2006, published 2009).
Several values for one entry are separate records, joined by “and”; a condition that tells them apart may be missing. Equal entries are not always repeated.

Test: Clinical study on the action of the formulations for weight reduction
Type: in vivo, human
Details: body weight per patient; postmenopausal women aged 52-59; 100 mg chrysin daily after lunch for 5 days; each table row is one patient
Protocol: Eight women between 52 and 59 in age who were hormonally in postmenopause and despite an activity program and targeted nutrition observed no change in weight, took 100 mg of chrysin for 5 days. This dose is under the dosages of any formulations which are offered as food supplements. After a further 5 days, the patients were advised, in order to excite the conversion of peripheral […], to take additionally 100 mg of cholic acid as supplement. Intake proceeded in each case at midday after lunch.

Structure (SMILES): O=c1cc(-c2ccccc2)oc2cc(O)cc(O)c12 [chrysin]
- kg after 5 days of 100 mg of chrysin: 73.5 kg and 69.5 kg (2×) and 65 kg and 71 kg and 78 kg and 70.2 kg and 67 kg
